# Test results reported in BindingDB's records for patent US20250236619 (Chia Tai Tianqing Pharmaceutical Group Co., 2025).
# pIC50: −log10 of the molar value.
# Target: Mitogen-activated protein kinase kinase kinase kinase 1 (Homo sapiens, UniProt Q92918)
# Assay: Assay for In Vitro Inhibitory Activity Against HPK1 Kinase
# Experimental: A kinase buffer (Enzymatic buffer 5×) was diluted to 1×, and 10 mM MgCl2, 1 mM DTT, and 0.005% Tween 20 were added. A 100 ng/μL HPK1 (Life technology) stock solution was diluted with the kinase buffer to obtain a 1.67×, 1.67 ng/μL working solution (final concentration: 1 ng/μL), and the working solution was seeded in a 384-well plate at 6 μL/well. Different compounds dissolved in DMSO were added to the wells using a nanoliter pipettor to obtain final concentrations of the compounds of 1000 nM to 0.244 nM (4-fold serial dilution, 7 concentrations in total), and blank control wells (without enzyme) and negative control wells (with enzyme, plus vehicle DMSO) were set; the wells were set in duplicate. After the enzyme and the compounds were incubated at room temperature for 1 h, a 5×, 5 mM ATP dilution (final concentration: 1 mM) in the kinase buffer was mixed with a 5×, […] (Cisbio, STK Substrate 1-biotin; final concentration: 500 nM) in equal volume, and the mixture was added to the plate at 4 µL/well. The plate was sealed with a film and then incubated at room temperature for 2 h. An assay antibody solution was prepared by mixing the antibody STK Antibody-cryptate (Cisbio, 5 μL/test) and a 4×, 500 nM Streptavidin-XL665 (Cisbio; final concentration: 125 nM) in equal volume and added to the plate at 10 μL/well. The plate was incubated at room temperature for 1 h. The signal values ([…]) were measured using a PE Envision multimode microplate reader, and IC50 was calculated by four-parameter fitting.
# Chain of Mitogen-activated protein kinase kinase kinase kinase 1 (Q92918 whole entry): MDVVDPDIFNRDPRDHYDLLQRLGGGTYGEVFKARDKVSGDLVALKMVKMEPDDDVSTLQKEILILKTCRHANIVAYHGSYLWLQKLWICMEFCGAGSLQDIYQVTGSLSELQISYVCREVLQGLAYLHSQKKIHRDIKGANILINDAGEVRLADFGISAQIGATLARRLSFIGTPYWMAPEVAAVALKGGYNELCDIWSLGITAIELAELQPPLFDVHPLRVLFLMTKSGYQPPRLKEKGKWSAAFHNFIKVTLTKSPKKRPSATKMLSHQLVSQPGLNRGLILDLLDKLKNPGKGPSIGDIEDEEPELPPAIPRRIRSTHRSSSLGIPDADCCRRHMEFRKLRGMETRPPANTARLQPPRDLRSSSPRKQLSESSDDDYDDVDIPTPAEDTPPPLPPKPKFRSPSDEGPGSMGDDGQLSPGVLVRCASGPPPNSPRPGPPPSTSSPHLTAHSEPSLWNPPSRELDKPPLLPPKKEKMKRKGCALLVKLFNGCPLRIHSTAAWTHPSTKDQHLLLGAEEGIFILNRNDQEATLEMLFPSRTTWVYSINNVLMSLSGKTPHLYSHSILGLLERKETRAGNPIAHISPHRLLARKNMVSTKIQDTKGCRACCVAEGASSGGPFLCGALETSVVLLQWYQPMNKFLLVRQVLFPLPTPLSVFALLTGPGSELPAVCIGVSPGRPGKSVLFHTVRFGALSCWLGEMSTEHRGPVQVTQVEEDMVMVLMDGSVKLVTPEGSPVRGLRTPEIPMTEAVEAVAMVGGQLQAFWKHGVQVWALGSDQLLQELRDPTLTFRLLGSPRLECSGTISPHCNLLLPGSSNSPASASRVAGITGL
row,pIC50,Structure (SMILES)
1,8.64,"CN(C)Cc1nc(Nc2ccc(-c3cnn4ccc5occc5c34)c3c2C(=O)NC3)ccc1C1CC(=O)N(C)C1 (stereo not drawn) [US20250236619, Compound I-59]"
2,7.68,"CN(C)Cc1nc(Nc2ccc(-c3cnc4cnc5occc5n34)c3c2C(=O)NC3)ccc1C1CCCO1 (stereo not drawn) [US20250236619, Compound I-65]"
3,8.12,"CC(=O)N(C)c1ccc(Nc2ccc(-c3cnn4ccc5occc5c34)c3c2C(=O)NC3)nc1CN(C)C [US20250236619, Compound I-70]"
4,8.54,"CN(C)Cc1nc(Nc2ccc(-c3cnn4ccc5occc5c34)c3c2C(=O)NC3)ccc1C1CCCO1 (stereo not drawn) [US20250236619, Compound I-64]"
5,7.54,"CN(C)Cc1nc(Nc2ccc(-c3cnc4ccc5occc5n34)c3c2C(=O)NC3)ccc1N1CCN(C)C1=O [US20250236619, Compound I-50]"
6,8.18,"CN(C)Cc1nc(Nc2ccc(-c3cnc4cnc5occc5n34)c3c2C(=O)NC3)ccc1C1CCOC1 (stereo not drawn) [US20250236619, Compound I-54]"
7,8.57,"[2H]C([2H])(c1nc(Nc2ccc(-c3cnn4c3CC3(CC3)C4)c3c2C(=O)NC3)ccc1C1CCOCC1)N(C)C [US20250236619, Compound I-53]"
8,8.55,"CN(C)Cc1nc(Nc2ccc(-c3cnc4cnc5occc5n34)c3c2C(=O)NC3)ccc1C1CCN(C)CC1 [US20250236619, Compound I-80]"
9,7.44,"CN(C)Cc1nc(Nc2ccc(-c3cnc4ccc5occc5n34)c3c2C(=O)NC3)ccc1N1CCCC1=O [US20250236619, Compound I-52]"
10,8.59,"CN(C)Cc1nc(Nc2ccc(-c3ccnc4c3c3c(n4C)CCC3)c3c2C(=O)NC3)ccc1C1CCN(C)C(=O)C1 (stereo not drawn) [US20250236619, Compound I-84]"
11,7.77,"O=C1NCc2c(-c3cnn4ccc5occc5c34)ccc(Nc3ccc(N4CCOCC4)c([C@H]4CCCN4)n3)c21 [US20250236619, Compound I-57]"
12,8.68,"CN(C)Cc1nc(Nc2ccc(-c3cnn4c3CC3(CC3)C4)c3c2C(=O)NC3)ccc1C1CCOCC1 [US20250236619, Compound I-34]"
13,8.77,"CN(C)Cc1nc(Nc2ccc(-c3cnn4ccc5occc5c34)c3c2C(=O)NC3)ccc1C1CCOCC1 [US20250236619, Compound I-38]"
14,8.70,"CN(C)Cc1nc(Nc2ccc(-c3cnn4ccc5occc5c34)c3c2C(=O)NC3)ccc1C1CCN(C)CC1 [US20250236619, Compound I-83]"
15,8.77,"[2H]C([2H])(c1nc(Nc2cnc(-c3ccnc4c3c3c(n4C)CCC3)c3c2C(=O)NC3)ccc1C1CCOCC1)N(C)C [US20250236619, Compound I-17]"
16,8.19,"CN(C)Cc1nc(Nc2ccc(-c3cnc4ccc5c(n34)CCO5)c3c2C(=O)NC3)ccc1C1CCOCC1 [US20250236619, Compound I-35]"
17,7.82,"CN(C)Cc1nc(Nc2cnc(-c3cnn4c3CC3(CC3)C4)c3c2C(=O)NC3)ccc1C1CCOCC1 [US20250236619, Compound I-55]"
18,8.34,"CN(C)Cc1nc(Nc2ccc(-c3cnn4c3CC3(CC3)C4)c3c2C(=O)NC3)ccc1C1CCN(C)C(=O)C1 (stereo not drawn) [US20250236619, Compound I-67]"
19,8.33,"CN(C)Cc1nc(Nc2cnc(-c3cnn4ccc5occc5c34)c3c2C(=O)NC3)ccc1N1CCOCC1 [US20250236619, Compound I-47]"
20,7.96,"CN(C)Cc1nc(Nc2ccc(-c3ncnc4[nH]c5c(c34)CCC5)c3c2C(=O)NC3)ccc1C1CCOCC1 [US20250236619, Compound I-24]"
21,8.74,"CN(C)Cc1nc(Nc2ccc(-c3cnn4ccc5occc5c34)c3c2C(=O)NC3)ccc1N1CCN(C)C(=O)C1 [US20250236619, Compound I-76]"
22,8.70,"CN(C)Cc1nc(Nc2ccc(-c3cnn4ccc5occc5c34)c3c2C(=O)NC3)ccc1-c1ccn(C)c(=O)c1 [US20250236619, Compound I-81]"
23,8.42,"CNCc1nc(Nc2ccc(-c3cnn4ccc5occc5c34)c3c2C(=O)NC3)sc1C1CCOCC1 [US20250236619, Compound I-85]"
24,8.25,"CN(C)Cc1nc(Nc2ccc(-c3cnc4cnc5occc5n34)c3c2C(=O)NC3)ccc1C1CC(=O)N(C)C1 (stereo not drawn) [US20250236619, Compound I-58]"
25,8.60,"CN(C)Cc1nc(Nc2ccc(-c3cnc4ccc5occc5n34)c3c2C(=O)NC3)ccc1C1CCN(C)C(=O)C1 (stereo not drawn) [US20250236619, Compound I-66]"
26,8.59,"CN(C)Cc1nc(Nc2ccc(-c3cnc4cnc5occc5n34)c3c2C(=O)NC3)ccc1C1CCOCC1 [US20250236619, Compound I-48]"
27,8.68,"CN(C)Cc1nc(Nc2cnc(-c3cnn4ccc5occc5c34)c3c2C(=O)NC3)ccc1C1CCOCC1 [US20250236619, Compound I-46]"

row,Structure (SMILES),pIC50
1,"CN(C)Cc1nc(Nc2cnc(-c3nnc4ccc5c(n34)CCC5)c3c2C(=O)NC3)ccc1C1CCOCC1 [US20250236619, Compound I-25]",7.49
